# Experimental data as given in patent US6855549B1, “Methods and compositions for increasing the infectivity of gene transfer vectors” (The University of Iowa Research Foundation, priority 1998, dated 2005).
# Entries after “also recorded” stand apart in the source; their conditions may differ.
# Tests used:
# lung = test: Lung morphology (H & E) 1 wk after EGTA/water instillation; format: in vivo, rat
# Experimental: Preliminary studies were performed in rats to test the feasibility of using hypotonic solutions with EGTA to increase transepithelial permeability in vivo. 3 wk old rats were tracheotomized and a small caliber PE catheter inserted into the left lobe of the lung. 100 μl of 3 or 12 mM EGTA in water or PBS was mixed with […] fluorescent beads (a marker for viral particles) and instilled into the lungs. One hour later the animals were sacrificed and lung, tissue sections examined under fluorescence microscopy to determine if the fluorescent beads penetrated the epithelial layer. In the PBS control animal, fluorescent particles were only noted in the airway lunen. […] It also was asked if animals treated with EGTA/H2O developed changes in lung morphology. Animals received PBS or 12, 60, or 120 mM EGTA/water into the left lobe of the lung and 1 wk later were sacrificed and H & E stained lung tissues examined.
# [1] = tested on: primary cultures of human airway epithelia; test: EGTA dose range for gene transfer on primary cultures of human airway epithelia; format: cell-based; conditions: MuLV or FIV based retroviruses, MOI 10, range tested 0-96 mM, 4 hrs apical
# Experimental: The optimal dose range for EGTA was determined on primary cultures of human airway epithelia Gene transfer efficiency with apical application of MuLV or FIV based retrovirus (MOI 10) or adenovirus (MOI 50) was determined over a range of EGTA concentrations from 0-96 mM. The vectors were diluted 1:1 (vol/vol) with a buffer consisting of water, 10 mM HEPES and the appropriate amount of EGTA. The vector formulation was left on the apical surface of the cells for 4 hrs, then removed. Gene transfer efficiency was evaluated 3 days later by X-gal staining for beta galactosidase expression.
# human nasal epithelium = test: Nasal transepithelial voltage (Vt) in human volunteers; format: in vivo
# Experimental: Human studies. The Vt across the nasal epithelium was measured in 6 volunteers using previously described methods (Zabner et al., 1996). The protocol followed was identical to that described above for the rabbit studies. […] The catheter was then left in that position for the entire recording period. The solutions were administered through the second lumen in the following order: 1) Normal saline for 5 min; 2) Sterile water with 10 mM EGTA or 10 mM EDTA for 10 min; 3) Nommal saline with 10 mM EGTA or 10 mM EDTA for 5 min; and 4) Normal saline with 10 mM, EGTA or 10 mM EDTA plus […] amiloride for 5 min. Measurements of Vt were read by two investigators who were blinded and wvere checked by a third investigator if there was a discrepancy of more than 2 mV. Disruption of epithelial junctions was assessed by detecting a fall in nasal Vt after perfusion with the chelator, and by the loss of amiloride-sensitive Vt after perfusion with the. chelator solution.
smiles,measurement,setting,value
O=C(O)CN(CCOCCOCCN(CC(=O)O)CC(=O)O)CC(=O)O [EGTA],lung morphology,lung; 120 mM EGTA,thickening of the interstitial space was noted
same,lung morphology,lung; 12 or 60 mM EGTA/water,morphology similar to the control
same,EGTA concentration giving greatest gene transfer (percentage of blue cells),[1],6 to 12 mM
same,adverse effects of nasal perfusion,"human nasal epithelium; 10 mM EGTA, volunteers",did not experience any adverse effects
same,nasal Vt,"human nasal epithelium; H2O/chelator then chelator in saline, 10 mM",there was a significant decrease in the Vt
same,amiloride-sensitive nasal Vt after EGTA treatment,human nasal epithelium; n=6,EGTA treatment abolished the amiloride-sensitive Vt; also recorded: essentially no amiloride-sensitive Vt remained
